pIC50: −log10 of the molar value.
Molecular target: T1, human PDE10A (Homo sapiens, UniProt Q9Y233)
T1 construct: The human PDE10A full length assay; purchased Enzo Life Science, Lausen, Switzerland SE-534
Assay: human PDE10A full length Scintillation Proximity Assay (SPA)
Format: biochemical
Details: 50 nM cGMP and 50 nM [3H]-cGMP, 20 minutes at room temperature; read-out: PDE10A inhibition IC50
Summary of the method: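 Full-length enzyme at 3.75 ng/well in 20 mM HEPES pH 7.5, 10 mM MgCl2, 0.05 mg/ml BSA, with 50 nM cGMP plus 50 nM [3H]-cGMP substrate, 20 min at room temperature. Stopped with YSi-SPA beads in zinc sulphate and counted by scintillation. IC50 from inhibitor concentration series; no-enzyme wells define background.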

T1 sequence (Q9Y233 1-779 isoform Q9Y233-1): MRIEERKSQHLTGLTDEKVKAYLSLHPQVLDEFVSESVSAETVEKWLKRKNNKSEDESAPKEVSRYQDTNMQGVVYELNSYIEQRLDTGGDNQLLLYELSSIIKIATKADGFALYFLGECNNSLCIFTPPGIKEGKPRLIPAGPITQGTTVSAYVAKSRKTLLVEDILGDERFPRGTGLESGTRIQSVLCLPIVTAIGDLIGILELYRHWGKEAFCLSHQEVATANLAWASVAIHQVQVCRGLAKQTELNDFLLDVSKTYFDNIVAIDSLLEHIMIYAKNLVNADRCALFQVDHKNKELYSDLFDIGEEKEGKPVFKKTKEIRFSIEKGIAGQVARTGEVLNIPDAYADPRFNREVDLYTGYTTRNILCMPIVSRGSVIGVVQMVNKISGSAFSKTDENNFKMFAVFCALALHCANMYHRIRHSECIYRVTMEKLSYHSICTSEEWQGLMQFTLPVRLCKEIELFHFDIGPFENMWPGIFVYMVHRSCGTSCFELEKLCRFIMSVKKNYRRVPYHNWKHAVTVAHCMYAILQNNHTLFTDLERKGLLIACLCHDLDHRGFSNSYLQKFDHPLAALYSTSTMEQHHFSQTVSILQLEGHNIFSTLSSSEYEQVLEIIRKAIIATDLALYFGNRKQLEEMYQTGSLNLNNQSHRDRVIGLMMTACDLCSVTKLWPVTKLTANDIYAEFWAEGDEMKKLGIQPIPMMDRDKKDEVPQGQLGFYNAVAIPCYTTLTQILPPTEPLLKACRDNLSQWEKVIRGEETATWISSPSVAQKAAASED

Row | Compound | pIC50
1 | Cn1ncc(C(=O)NCc2ncco2)c1C(=O)Nc1ccn2cc(-c3ccccc3)nc2n1 [Example 122, 1-methyl-N4-(oxazol-2-ylmethyl)-N5-(2-phenylimidazo[1,2-a]pyrimidin-7-yl)-1H-pyrazole-4,5-dicarboxamide] | 7.77
2 | CNC(=O)c1cnn(C)c1C(=O)Nc1ccn2cc(-c3cccc(Cl)c3)nc2n1 [Example 32, 2-Methyl-2H-pyrazole-3,4-dicarboxylic acid 3-{[2-(3-chloro-phenyl)-imidazo[1,2-a]pyrimidin-7-yl]-amide}4-methylamide] | 7.64
3 | Cc1cc(CNC(=O)c2cnn(C)c2C(=O)Nc2ccn3cc(-c4ccccc4)nc3n2)on1 [Example 127, 1-methyl-N4-((3-methylisoxazol-5-yl)methyl)-N5-(2-phenylimidazo[1,2-a]pyrimidin-7-yl)-1H-pyrazole-4,5-dicarboxamide] | 7.59
4 | Cn1ncc(C(=O)N2CCOCC2c2cccnc2)c1C(=O)Nc1ccn2cc(-c3ccccc3)nc2n1 (stereo not shown) [Example 137, 1-methyl-N-(2-phenylimidazo[1,2-a]pyrimidin-7-yl)-4-(3-(pyridin-3-yl)morpholine-4-carbonyl)-1H-pyrazole-5-carboxamide] | 6.93
5 | O=C(Nc1ccn2cc(-c3ccccc3)nc2n1)c1nc(C2CC2)ccc1Nc1cncnc1 [Example 77, 6-Cyclopropyl-3-(pyrimidin-5-ylamino)-pyridine-2-carboxylic acid (2-phenyl-imidazo[1,2-a]pyrimidin-7-yl)-amide] | 8.20
6 | Cn1cc2c(n1)CN(C(=O)c1cnn(C)c1C(=O)Nc1ccn3cc(-c4ccccc4)nc3n1)C2 [Example 169, 1-methyl-4-(2-methyl-2,4,5,6-tetrahydropyrrolo[3,4-c]pyrazole-5-carbonyl)-N-(2-phenylimidazo[1,2-a]pyrimidin-7-yl)-1H-pyrazole-5-carboxamide] | 6.02
7 | Cn1ncc(C(=O)N2CCC2)c1C(=O)Nc1ccn2cc(-c3cccc(Cl)c3)nc2n1 [Example 63, 4-(Azetidine-1-carbonyl)-2-methyl-2H-pyrazole-3-carboxylic acid [2-(3-chloro-phenyl)-imidazo[1,2-a]pyrimidin-7-yl]-amide] | 8.32
8 | Cn1ncc(C(=O)NCc2ccon2)c1C(=O)Nc1ccn2cc(-c3ccccc3)nc2n1 [Example 146, N4-(isoxazol-3-ylmethyl)-1-methyl-N5-(2-phenylimidazo[1,2-a]pyrimidin-7-yl)-1H-pyrazole-4,5-dicarboxamide] | 6.67
9 | CC(NC(=O)c1cnn(C)c1C(=O)Nc1ccn2cc(-c3ccccc3)nc2n1)c1cccnc1 (stereo not shown) [Example 139, 1-methyl-N5-(2-phenylimidazo[1,2-a]pyrimidin-7-yl)-N4-(1-(pyridin-3-yl)ethyl)-1H-pyrazole-4,5-dicarboxamide] | 6.83
10 | CN(CCOCCF)C(=O)c1cnn(C)c1C(=O)Nc1ccn2cc(-c3ccccc3)nc2n1 [Example 106, 2-Methyl-2H-pyrazole-3,4-dicarboxylic acid 4-{[2-(2-fluoro-ethoxy)-ethyl]-methyl-amide}3-[(2-phenyl-imidazo[1,2-a]pyrimidin-7-yl)-amide]] | 7.36
11 | Cc1ccc(CNC(=O)c2cnn(C)c2C(=O)Nc2ccn3cc(-c4ccccc4)nc3n2)nc1 [Example 155, 1-methyl-N4-((5-methylpyridin-2-yl)methyl)-N5-(2-phenylimidazo[1,2-a]pyrimidin-7-yl)-1H-pyrazole-4,5-dicarboxamide] | 6.46
12 | Cn1ncc(C(=O)NCC(F)(F)F)c1C(=O)Nc1ccn2cc(-c3ccccc3)nc2n1 [Example 130, 1-methyl-N5-(2-phenylimidazo[1,2-a]pyrimidin-7-yl)-N4-(2,2,2-trifluoroethyl)-1H-pyrazole-4,5-dicarboxamide] | 7.46
13 | Cn1ncc(C(=O)N2CCC2)c1C(=O)Nc1ccn2cc(-c3cccc(OC(F)(F)F)c3)nc2n1 [Example 61, 4-(Azetidine-1-carbonyl)-2-methyl-2H-pyrazole-3-carboxylic acid [2-(3-trifluoromethoxy-phenyl)-imidazo[1,2-a]pyrimidin-7-yl]-amide] | 7.63
14 | C=CCn1ncc(C(=O)N2CCC2)c1C(=O)Nc1ccn2cc(-c3ccccc3)nc2n1 [Example 120, 1-allyl-4-(azetidine-1-carbonyl)-N-(2-phenylimidazo[1,2-a]pyrimidin-7-yl)-1H-pyrazole-5-carboxamide] | 7.86
15 | CCn1nc([N+](=O)[O-])cc1C(=O)Nc1ccn2cc(-c3ccccc3)nc2n1 [Example 15, 2-Ethyl-5-nitro-2H-pyrazole-3-carboxylic acid (2-phenyl-imidazo[1,2-a]pyrimidin-7-yl)-amide] | 6.13

More lines, now with the values ahead:

Row | pIC50 | Compound
16 | 7.57 | Cc1nn(C)c(C(=O)Nc2ccn3cc(-c4ccccc4)nc3n2)c1Br [Example 5, 4-Bromo-2,5-dimethyl-2H-pyrazole-3-carboxylic acid (2-phenyl-imidazo[1,2-a]pyrimidin-7-yl)-amide]
17 | 7.55 | Cc1ccc(C)c(C(=O)Nc2ccn3cc(-c4ccccc4)nc3n2)n1 [Example 17, 3,6-Dimethyl-pyridine-2-carboxylic acid (2-phenyl-imidazo[1,2-a]pyrimidin-7-yl)-amide]
18 | 6.35 | O=C(Nc1ccn2cc(-c3ccccc3)nc2n1)c1nn[nH]c1C(=O)NC1CC1 [Example 159, N5-cyclopropyl-N4-(2-phenylimidazo[1,2-a]pyrimidin-7-yl)-1H-1,2,3-triazole-4,5-dicarboxamide]
19 | 7.48 | Cn1ncc(C(=O)NCC(F)F)c1C(=O)Nc1ccn2cc(-c3ccccc3)nc2n1 [Example 129, N4-(2,2-difluoroethyl)-1-methyl-N5-(2-phenylimidazo[1,2-a]pyrimidin-7-yl)-1H-pyrazole-4,5-dicarboxamide]
20 | 7.46 | CNC(=O)c1[nH]nnc1C(=O)Nc1ccn2cc(-c3ccccc3)nc2n1 [Example 65, 1H-[1,2,3]Triazole-4,5-dicarboxylic acid 5-methylamide 4-[(2-phenyl-imidazo[1,2-a]pyrimidin-7-yl)-amide]]
21 | 7.19 | Cc1cc(Br)cnc1C(=O)Nc1ccn2cc(-c3ccccc3)nc2n1 [Example 23, 5-Bromo-3-methyl-pyridine-2-carboxylic acid (2-phenyl-imidazo[1,2-a]pyrimidin-7-yl)-amide]
22 | 8.19 | CCn1ncc(C(=O)NC)c1C(=O)Nc1ccn2cc(-c3ccccc3)nc2n1 [Example 64, 2-Ethyl-2H-pyrazole-3,4-dicarboxylic acid 4-methylamide 3-[(2-phenyl-imidazo[1,2-a]pyrimidin-7-yl)-amide]]
23 | 7.42 | CCN(C)C(=O)c1cn(C)nc1C(=O)Nc1ccn2cc(-c3ccccc3)nc2n1 [Example 68, 1-Methyl-1H-pyrazole-3,4-dicarboxylic acid 4-(ethyl-methyl-amide) 3-[(2-phenyl-imidazo[1,2-a]pyrimidin-7-yl)-amide]]
24 | 6.79 | O=C(Nc1ccn2cc(-c3ccccc3)nc2n1)c1nn[nH]c1C(=O)N1CCC1 [Example 27, 5-(Azetidine-1-carbonyl)-1H-[1,2,3]triazole-4-carboxylic acid (2-phenyl-imidazo[1,2-a]pyrimidin-7-yl)-amide]
25 | 6.52 | Cn1ncc(C(=O)NCc2cc(C3CC3)[nH]n2)c1C(=O)Nc1ccn2cc(-c3ccccc3)nc2n1 [Example 152, N4-((5-cyclopropyl-1H-pyrazol-3-yl)methyl)-1-methyl-N5-(2-phenylimidazo[1,2-a]pyrimidin-7-yl)-1H-pyrazole-4,5-dicarboxamide]

Source: patent publication US8410117B2, “Imidazopyrimidine derivatives” (Hoffmann-La Roche Inc., priority 2010, dated 2013)
